The values that follow come from US20230135894A1, “MK2 DEGRADERS AND USES THEREOF” (Kymera Therapeutics, Inc., priority 2021, published 2023).

Assay [1] concerns the target T1, MK2 (Homo sapiens, UniProt P49137). The experiment in a line: MK2 degradation in human THP-1 monocytic cells (MSD, 24 h). The assay is classed as cell-based. Set-up: endogenous in cells. The following applies: for Dmax: THP-1, THP-1 cells; for DC50: THP-1 cells, read-out: MK2 MSD THP-1 degradation 24 h GMean External Abs DC50. Put shortly:
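Readout: residual MK2 protein in THP-1 lysates, measured by MSD electrochemiluminescence sandwich assay after 24 h compound exposure (≤10-point serial dilutions, 0.1% DMSO, 37 °C). Curves normalised between lysis-buffer and DMSO-cell signals; DC50 by 4-parameter logistic fit.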

In assay [2] the target is T1, MK2. The experiment in a line: MK2 degradation in human SW1353 cells (MSD, 24 h). The assay is classed as cell-based. The following applies: for Dmax: read-out: MK2 MSD SW 1353 24 h Dmax %; for DC50: read-out: MK2 MSD SW1353 degradation 24 h GMean External Abs DC50. Set-up: endogenous in cells; host or cells: SW-1353 (ATCC HTB-94); key to MK2 MSD SW 1353 24 h Dmax %: —: “-”=not tested or inactive. Put shortly: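 DC50 derived by 4-parameter logistic fit, with DMSO-treated signal as top and lysis-buffer signal as bottom. Remaining MK2 was measured by MSD electrochemiluminescent sandwich assay in RIPA lysates of human SW1353 cells exposed for 24 h at 37 °C to serially diluted compound in 0.1% DMSO.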

T1 sequence (P49137 whole entry): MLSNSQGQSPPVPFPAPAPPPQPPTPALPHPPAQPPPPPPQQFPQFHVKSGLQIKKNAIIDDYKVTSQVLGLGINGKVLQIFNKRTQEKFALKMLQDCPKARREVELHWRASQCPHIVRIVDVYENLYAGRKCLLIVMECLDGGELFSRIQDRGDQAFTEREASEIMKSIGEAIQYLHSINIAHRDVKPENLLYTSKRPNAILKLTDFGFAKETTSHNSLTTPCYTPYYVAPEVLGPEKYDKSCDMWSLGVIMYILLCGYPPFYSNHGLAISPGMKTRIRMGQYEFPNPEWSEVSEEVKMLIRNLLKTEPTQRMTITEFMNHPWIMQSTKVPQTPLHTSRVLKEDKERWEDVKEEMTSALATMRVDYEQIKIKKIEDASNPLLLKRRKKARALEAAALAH

As to `Cc1nc(N2CCN(CC3CCN(c4ccc5c(c4)n(C)c(=O)n5C4CCC(=O)NC4=O)CC3)CC2)ccc1-c1ccc2c(ccc3sc4c(c32)NC[C@@H](C)NC4=O)n1` (stereo partly shown) [Compound I-283], in assay [1], the Dmax is more than 75% and the DC50 was less than 1 nM. For the same compound, in assay [2], the Dmax is more than 75% and the DC50 was less than 1 nM.

Turning to `C[C@@H]1CNc2c(sc3ccc4nc(-c5cc(N6CCC(CN7CCC(c8cccc9c8n(C)c(=O)n9C8CCC(=O)NC8=O)CC7)CC6)ccc5F)ccc4c23)C(=O)N1` (stereo partly shown) [Compound I-284], in assay [1], the Dmax was more than 75% and the DC50 fell in the range of 1 to 10 nM. Besides, in assay [2], the Dmax is more than 75% and the DC50 is 1 to 10 nM.

For `C[C@@H]1CNc2c(sc3ccc4nc(-c5cc(N6CCC(CN7CCN(c8cccc9c8n(C)c(=O)n9C8CCC(=O)NC8=O)CC7)CC6)ccc5F)ccc4c23)C(=O)N1` (stereo partly shown) [Compound I-285], in assay [1], the Dmax is more than 75% and the DC50 was in the range of 1 to 10 nM. For the same compound, in assay [2], the Dmax was more than 75% and the DC50 fell in the range of 1 to 10 nM.

For `C[C@@H]1CNc2c(sc3ccc4nc(-c5cc(N6CCN(CCCCCCCCc7cccc8c7n(C)c(=O)n8C7CCC(=O)NC7=O)CC6)ccc5F)ccc4c23)C(=O)N1` (stereo partly shown) [Compound I-286], in assay [1], the Dmax lay in the range of 50 to 75% and the DC50 lay in the range of 10 to 100 nM. Moreover, in assay [2], the Dmax is more than 75% and the DC50 lay in the range of 10 to 100 nM.

For the compound `C[C@@H]1CNc2c(sc3ccc4nc(-c5ccc(N6CCN(CCCc7ccc8c(c7)n(C)c(=O)n8C7CCC(=O)NC7=O)CC6)nc5)ccc4c23)C(=O)N1` (stereo partly shown) [Compound I-287], the Dmax in assay [1] and in assay [2] was more than 75% throughout. Further, the DC50 in assay [1] and in assay [2] was less than 1 nM throughout.

For the compound `C[C@@H]1CNc2c(sc3ccc4nc(-c5ccc(N6CCN(CCCc7cccc8c7n(C)c(=O)n8C7CCC(=O)NC7=O)CC6)nc5)ccc4c23)C(=O)N1` (stereo partly shown) [Compound I-288], the Dmax in assay [1] and in assay [2] was more than 75% each time. Also, the DC50 in assay [1] and in assay [2] was less than 1 nM throughout.

As for `C[C@@H]1CNc2c(sc3ccc4nc(-c5ccc(N6CCN(CC7CCN(c8ccc9c(c8)n(C)c(=O)n9C8CCC(=O)NC8=O)CC7)CC6)cc5F)ccc4c23)C(=O)N1` (stereo partly shown) [Compound I-289], in assay [1], the Dmax is more than 75% and the DC50 was less than 1 nM. Further, in assay [2], the Dmax was more than 75% and the DC50 fell in the range of 1 to 10 nM.

For `C[C@@H]1Cc2[nH]c(-c3ccnc(-c4ccc(N5CCN(CC6CCN(c7cccc8c7n(C)c(=O)n8C7CCC(=O)NC7=O)CC6)CC5)cc4)c3)cc2C(=O)N1` (stereo partly shown) [Compound I-290], the Dmax in assay [1] and in assay [2] was more than 75% in each case. Moreover, the DC50 in assay [1] is less than 1 nM; in assay [2] it was 1 to 10 nM.

As to `Cc1cc(N2CCC(CN3CCC(c4ccc5c(c4)n(C)c(=O)n5C4CCC(=O)NC4=O)CC3)CC2)ccc1-c1ccc2c(ccc3sc4c(c32)NC[C@@H](C)NC4=O)n1` (stereo partly shown) [Compound I-291], in assay [1], the Dmax was more than 75% and the DC50 is less than 1 nM. For the same compound, in assay [2], the Dmax was more than 75% and the DC50 is less than 1 nM.

With `C[C@@H]1CNc2c(sc3ccc4nc(-c5ccc(N6CCC(CN7CCN(c8ccc9c(c8)n(C)c(=O)n9C8CCC(=O)NC8=O)CC7)CC6)cc5Cl)ccc4c23)C(=O)N1` (stereo partly shown) [Compound I-292], in assay [1], the Dmax was more than 75% and the DC50 is less than 1 nM. In assay [2], the Dmax was more than 75% and the half-maximal degradation concentration (DC50) was 1 to 10 nM.

With `C[C@@H]1CNc2c(sc3ccc4nc(-c5cccc(N6CCC7(CC6)CN(CCCCCCc6cccc8c6n(C)c(=O)n8C6CCC(=O)NC6=O)C7)c5)ccc4c23)C(=O)N1` (stereo partly shown) [Compound I-293], in assay [1], the Dmax is more than 75% and the DC50 is less than 1 nM. In addition, in assay [2], the Dmax was more than 75% and the DC50 was 10 to 100 nM.

Turning to `C[C@@H]1CNc2c(sc3ccc4nc(-c5ccc(N6CCC7(CC6)CN(CCCCCCc6cccc8c6n(C)c(=O)n8C6CCC(=O)NC6=O)C7)cc5)ccc4c23)C(=O)N1` (stereo partly shown) [Compound I-294], the Dmax in assay [1] and in assay [2] was more than 75% each time. Further, the DC50 in assay [1] was less than 1 nM; in assay [2], 1 to 10 nM.

Turning to `O=C1CCC(N2Cc3cc(N4CCN(CC5CCN(c6ccc(-c7cc(-c8cc9c([nH]8)CCNC9=O)ccn7)c(F)c6)CC5)CC4)ccc3C2=O)C(=O)N1` (stereo not shown) [Compound I-295], in assay [1], the Dmax was in the range of 50 to 75% and the DC50 was 10 to 100 nM. In addition, in assay [2], the Dmax was more than 75% and the DC50 was in the range of 10 to 100 nM.

For the compound `C[C@@H]1CNc2c(sc3ccc4nc(-c5cccc(C6CCN(CCN7CCC(CCc8cccc9c8n(C)c(=O)n9C8CCC(=O)NC8=O)CC7)CC6)c5)ccc4c23)C(=O)N1` (stereo partly shown) [Compound I-296], in assay [1], the DC50 fell in the range of 1 to 10 nM. For the same compound, in assay [2], the “MK2 MSD SW 1353 24 h Dmax %” value is given as “—” and the half-maximal degradation concentration (DC50) was in the range of 10 to 100 nM.

Consider `C[C@@H]1CNc2c(sc3ccc4nc(-c5ccc(N6CCC(CN7CCC(c8ccc9c(c8)n(C)c(=O)n9C8CCC(=O)NC8=O)CC7)CC6)cc5F)ccc4c23)C(=O)N1` (stereo partly shown) [Compound I-297], for which, in assay [1], the Dmax is more than 75% and the DC50 is less than 1 nM. Moreover, in assay [2], the Dmax was more than 75% and the 50% degradation concentration (DC50) was less than 1 nM.

Turning to `Cc1cc(N2CCC(CN3CCN(c4ccc5c(c4)n(C)c(=O)n5C4CCC(=O)NC4=O)CC3)CC2)ccc1-c1ccc2c(ccc3sc4c(c32)NC[C@@H](C)NC4=O)n1` (stereo partly shown) [Compound I-298], in assay [1], the Dmax is more than 75% and the DC50 is less than 1 nM. Also, in assay [2], the Dmax is more than 75% and the DC50 is less than 1 nM.

In the case of `C[C@@H]1CNc2c(sc3ccc4nc(-c5ccc(N6CCC(CN7CCC(c8cccc9c8n(C)c(=O)n9C8CCC(=O)NC8=O)CC7)CC6)cc5F)ccc4c23)C(=O)N1` (stereo partly shown) [Compound I-299], in assay [1], the Dmax was more than 75% and the DC50 is less than 1 nM. Also, in assay [2], the Dmax is more than 75% and the DC50 is less than 1 nM.

Take `Cn1c(=O)n(C2CCC(=O)NC2=O)c2cccc(CCCCCCN3CCC4(CC3)CNC(=O)c3c4[nH]c4c3CCc3cnc(-c5ccccc5F)cc3-4)c21` (stereo not shown) [Compound I-300]: in assay [1], the Dmax is less than 50% and the DC50 is more than 100 nM. Moreover, in assay [2], the Dmax was less than 50% and the DC50 was more than 100 nM.

Turning to `O=C1CCC(N2Cc3cc(N4CCN(CC5CCN(c6ccc(F)c(-c7cc(-c8cc9c([nH]8)CCNC9=O)ccn7)c6)CC5)CC4)ccc3C2=O)C(=O)N1` (stereo not shown) [Compound I-301], the Dmax in assay [1] and in assay [2] was less than 50% throughout. For the same compound, the DC50 in assay [1] and in assay [2] was more than 100 nM throughout.

Consider `C[C@@H]1CNc2c(sc3ccc4nc(-c5ccc(N6CCN(CC7CCN(c8ccc9c(c8)CN(C8CCC(=O)NC8=O)C9=O)CC7)CC6)cc5)ccc4c23)C(=O)N1` (stereo partly shown) [Compound I-302], for which, in assay [1], the Dmax was more than 75% and the DC50 lay in the range of 1 to 10 nM. In assay [2], the maximal degradation (Dmax) is more than 75% and the DC50 is 1 to 10 nM.

On to `C[C@@H]1CNc2c(sc3ccc4nc(-c5cccc(N6CCN(CC7CCN(c8ccc9c(c8)CN(C8CCC(=O)NC8=O)C9=O)CC7)CC6)c5)ccc4c23)C(=O)N1` (stereo partly shown) [Compound I-303], for which, in assay [1], the Dmax is more than 75% and the DC50 was less than 1 nM. In assay [2], the Dmax is more than 75% and the DC50 fell in the range of 1 to 10 nM.

`C[C@@H]1CNc2c(sc3ccc4nc(-c5cccc(N6CCC(CN7CCN(c8ccc9c(c8)CN(C8CCC(=O)NC8=O)C9=O)CC7)CC6)c5)ccc4c23)C(=O)N1` (stereo partly shown) [Compound I-304]: in assay [1], the Dmax is more than 75% and the DC50 is 1 to 10 nM. In assay [2], the Dmax is more than 75% and the DC50 lay within 1 to 10 nM.

Consider `Cn1c(=O)n(C2CCC(=O)NC2=O)c2ccc(C3CCN(CC4CCN(c5ccc(-c6cc(-c7cc8c([nH]7)CCNC8=O)ccn6)c(F)c5)CC4)CC3)cc21` (stereo not shown) [Compound I-305], for which, in assay [1], the Dmax is more than 75% and the DC50 was less than 1 nM. Further, in assay [2], the Dmax is more than 75% and the DC50 is less than 1 nM.

For the compound `C[C@@H]1CNc2c(sc3ccc4nc(-c5ccc(N6CCC(CN7CCN(c8ccc9c(c8)n(C)c(=O)n9C8CCC(=O)NC8=O)CC7)CC6)cc5F)ccc4c23)C(=O)N1` (stereo partly shown) [Compound I-306], in assay [1], the Dmax was more than 75% and the DC50 was less than 1 nM. In addition, in assay [2], the Dmax was more than 75% and the DC50 is less than 1 nM.

For `C[C@@H]1CNc2c(sc3ccc4nc(-c5ccc(N6CCC(CN7CCN(c8cccc9c8n(C)c(=O)n9C8CCC(=O)NC8=O)CC7)CC6)cc5F)ccc4c23)C(=O)N1` (stereo partly shown) [Compound I-307], in assay [1], the Dmax is more than 75% and the DC50 fell in the range of 1 to 10 nM. Moreover, in assay [2], the Dmax is more than 75% and the DC50 was 1 to 10 nM.

Turning to `Cn1c(=O)n(C2CCC(=O)NC2=O)c2cccc(CCCCCCCCN3CCC4(CC3)CNC(=O)c3c4[nH]c4c3CCc3cnc(-c5ccccc5F)cc3-4)c21` (stereo not shown) [Compound I-309], in assay [1], the Dmax was less than 50% and the DC50 is more than 100 nM. Moreover, in assay [2], the “MK2 MSD SW 1353 24 h Dmax %” value was “—” and the DC50 was more than 100 nM.
